The values that follow come from ChEMBL document CHEMBL1909046, “DrugMatrix in vitro pharmacology data”.

Broadly, the IC50 is the concentration at which inhibition is half-maximal. As usually defined, the Ki is a dissociation constant, usually derived from enzyme kinetics or from competition with a known ligand.

In assay [1] the target is T1, Alpha-2C adrenergic receptor (Homo sapiens, UniProt P18825).
T1 sequence (P18825 whole entry): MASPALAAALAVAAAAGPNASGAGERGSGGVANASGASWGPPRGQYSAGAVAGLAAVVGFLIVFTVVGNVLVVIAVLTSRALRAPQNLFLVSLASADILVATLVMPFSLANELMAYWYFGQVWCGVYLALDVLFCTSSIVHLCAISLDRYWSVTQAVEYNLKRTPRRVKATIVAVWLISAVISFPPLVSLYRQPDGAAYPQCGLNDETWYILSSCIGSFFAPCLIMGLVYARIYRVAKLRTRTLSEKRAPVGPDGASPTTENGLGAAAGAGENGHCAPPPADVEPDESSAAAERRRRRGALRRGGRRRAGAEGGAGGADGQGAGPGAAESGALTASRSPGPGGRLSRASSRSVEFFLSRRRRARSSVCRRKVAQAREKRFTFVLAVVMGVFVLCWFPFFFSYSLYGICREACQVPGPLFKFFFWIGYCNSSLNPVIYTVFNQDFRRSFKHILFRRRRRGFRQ
As to the kind of experiment: DRUGMATRIX: Adrenergic Alpha-2C radioligand binding (ligand: [3H] MK-912). It counts as cell membranes, Sf9, Membrane.

The target in a further assay is T2, Substance-K receptor (Homo sapiens, UniProt P21452). Further: in other assays of this panel Not Active means under 50% inhibition at 10 µM.
T2 sequence (P21452 whole entry): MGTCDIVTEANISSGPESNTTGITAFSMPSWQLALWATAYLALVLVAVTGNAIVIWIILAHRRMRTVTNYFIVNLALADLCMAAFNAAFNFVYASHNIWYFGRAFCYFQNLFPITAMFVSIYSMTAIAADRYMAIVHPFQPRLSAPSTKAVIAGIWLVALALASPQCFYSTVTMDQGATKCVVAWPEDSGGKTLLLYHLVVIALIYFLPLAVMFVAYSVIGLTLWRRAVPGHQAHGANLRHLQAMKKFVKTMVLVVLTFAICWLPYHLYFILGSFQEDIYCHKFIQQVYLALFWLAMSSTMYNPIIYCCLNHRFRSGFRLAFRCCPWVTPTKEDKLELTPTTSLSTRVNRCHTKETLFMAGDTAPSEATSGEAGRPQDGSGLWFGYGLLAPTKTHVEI
It counts as cell membranes, CHO, Membrane.

A further assay concerns the target Histamine H2 receptor (Homo sapiens, UniProt P25021). It counts as cell membranes, CHO-K1, Membrane. The following applies: cho-k1. Further: in other assays of this panel Not Active means under 50% inhibition at 10 µM.
A further assay deals with Mu-type opioid receptor (Homo sapiens, UniProt P35372). The assay is described as follows: DRUGMATRIX: Opiate mu (OP3, MOP) radioligand binding (ligand: [3H] Diprenorphine). The format is cell membranes, CHO-K1, Membrane. The following applies: Not Active = under 50% inhibition at 10 µM.
Assay [2] addresses Tyrosine-protein kinase Lck (Homo sapiens, UniProt P06239). The assay is described as follows: DRUGMATRIX: Protein Tyrosine Kinase, LCK enzyme inhibition (substrate: Poly(Glu:Tyr)). It counts as cell-based, Insect cells. The following applies: Not Active = under 50% inhibition at 10 µM.

Chain of Histamine H2 receptor (P25021 whole entry): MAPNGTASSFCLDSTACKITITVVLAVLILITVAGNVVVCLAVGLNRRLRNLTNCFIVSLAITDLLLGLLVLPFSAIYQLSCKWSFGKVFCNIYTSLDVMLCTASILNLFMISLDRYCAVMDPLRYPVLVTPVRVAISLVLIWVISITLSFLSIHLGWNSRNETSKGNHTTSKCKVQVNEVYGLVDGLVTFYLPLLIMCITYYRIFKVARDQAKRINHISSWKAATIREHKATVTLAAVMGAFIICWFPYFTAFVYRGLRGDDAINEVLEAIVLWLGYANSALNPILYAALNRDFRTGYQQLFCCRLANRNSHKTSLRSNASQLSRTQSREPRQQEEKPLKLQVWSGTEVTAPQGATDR
Chain of Tyrosine-protein kinase Lck (P06239 whole entry): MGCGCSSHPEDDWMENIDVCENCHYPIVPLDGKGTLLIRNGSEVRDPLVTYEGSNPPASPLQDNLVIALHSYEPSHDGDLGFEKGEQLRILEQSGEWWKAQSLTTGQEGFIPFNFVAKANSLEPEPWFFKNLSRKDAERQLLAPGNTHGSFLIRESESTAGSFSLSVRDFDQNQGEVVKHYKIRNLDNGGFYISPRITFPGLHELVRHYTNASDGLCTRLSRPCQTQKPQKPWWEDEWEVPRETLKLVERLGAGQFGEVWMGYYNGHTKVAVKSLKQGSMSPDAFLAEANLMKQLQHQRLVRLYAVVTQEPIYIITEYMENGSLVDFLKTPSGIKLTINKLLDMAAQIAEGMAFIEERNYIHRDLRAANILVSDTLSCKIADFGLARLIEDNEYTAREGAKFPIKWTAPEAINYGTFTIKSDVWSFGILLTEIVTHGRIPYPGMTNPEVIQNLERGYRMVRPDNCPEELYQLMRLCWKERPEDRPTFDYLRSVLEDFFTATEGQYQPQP
Chain of Mu-type opioid receptor (P35372 whole entry): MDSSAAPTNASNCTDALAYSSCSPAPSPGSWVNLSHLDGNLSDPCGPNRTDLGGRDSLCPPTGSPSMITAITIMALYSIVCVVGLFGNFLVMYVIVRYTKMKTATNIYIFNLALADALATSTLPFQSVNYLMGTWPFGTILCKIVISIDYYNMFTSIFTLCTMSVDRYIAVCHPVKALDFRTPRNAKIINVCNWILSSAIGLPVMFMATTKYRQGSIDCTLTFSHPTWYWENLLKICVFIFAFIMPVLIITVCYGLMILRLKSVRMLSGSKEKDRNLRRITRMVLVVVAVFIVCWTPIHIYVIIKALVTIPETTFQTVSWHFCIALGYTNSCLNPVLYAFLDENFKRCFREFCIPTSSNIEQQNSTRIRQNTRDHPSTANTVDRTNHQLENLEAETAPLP

As for `CCOc1nc2cccc(C(=O)O)c2n1Cc1ccc(-c2ccccc2-c2nnn[nH]2)cc1`, the IC50 entry (in assay [1] (sf9); at Substance-K receptor (cho); on Histamine H2 receptor; at Mu-type opioid receptor (cho-k1); in assay [2] (insect cells)) was “Not Active” each time.
As for `O=C(O)CCCc1cccs1`, the IC50 result (in assay [1] (sf9); on Substance-K receptor (cho); against Histamine H2 receptor; at Mu-type opioid receptor (cho-k1); in assay [2] (insect cells)) was “Not Active” each time.
As for `COc1ccccc1N`, the IC50 result (in assay [1] (sf9); against Substance-K receptor (cho); against Histamine H2 receptor; at Mu-type opioid receptor (cho-k1); in assay [2] (insect cells)) was “Not Active” each time.
Take `O=C(c1ccccc1F)N1CCC(Cc2ccccc2)CC1`: the IC50 entry (in assay [1] (sf9); at Substance-K receptor (cho); against Histamine H2 receptor; at Mu-type opioid receptor (cho-k1); in assay [2] (insect cells)) was “Not Active” each time.
Turning to `Cc1c(O)cccc1C(=O)N[C@@H](CSc1ccccc1)[C@H](O)CN1C[C@H]2CCCC[C@H]2C[C@H]1C(=O)NC(C)(C)C`, the IC50 entry in assay [1] (sf9) was “Not Active”; on Substance-K receptor (read-out: IC50), 29.4 µM; against Histamine H2 receptor, “Not Active”; on Mu-type opioid receptor (read-out: IC50) it was 14.4 µM; in assay [2] (read-out: IC50), 79.2 µM. The values for the Ki on Substance-K receptor (read-out: Ki) and at Mu-type opioid receptor were 9.79 µM and 5.86 µM, respectively.
As for `CC(O)COC[C@H]1O[C@@H]2O[C@H]3[C@H](O)[C@@H](O)[C@@H](O[C@H]4[C@H](O)[C@@H](O)[C@@H](O[C@H]5[C@H](O)[C@@H](O)[C@@H](O[C@H]6[C@H](O)[C@@H](O)[C@@H](O[C@H]7[C@H](O)[C@@H](O)[C@@H](O[C@H]8[C@H](O)[C@@H](O)[C@@H](O[C@H]1[C@H](O)[C@H]2O)O[C@@H]8COCC(C)O)O[C@@H]7COCC(C)O)O[C@@H]6COCC(C)O)O[C@@H]5COCC(C)O)O[C@@H]4COCC(C)O)O[C@@H]3COCC(C)O` (stereo partly drawn) [2-HYDROXYPROPYL-BETA-CYCLODEXTRIN], the IC50 result (in assay [1] (sf9); against Substance-K receptor (cho); against Histamine H2 receptor; at Mu-type opioid receptor (cho-k1); in assay [2] (insect cells)) was “Not Active” each time.
Take `NC(=O)c1cccc(N)c1` [3-AMINOBENZAMIDE]: the IC50 result (in assay [1] (sf9); on Substance-K receptor (cho); at Histamine H2 receptor; at Mu-type opioid receptor (cho-k1); in assay [2] (insect cells)) was “Not Active” in each case.
As for `C[C@H]1O[C@H](O[C@H]2[C@H](O)[C@@H](O)[C@@H](O[C@H]3[C@H](O)[C@@H](O)C(O)O[C@@H]3CO)O[C@@H]2CO)[C@H](O)[C@@H](O)[C@@H]1N[C@H]1C=C(CO)[C@@H](O)[C@H](O)[C@H]1O` (stereo partly specified) [ACARBOSE], the half-maximal inhibitory concentration (IC50) entry (in assay [1] (sf9); on Substance-K receptor (cho); against Histamine H2 receptor; at Mu-type opioid receptor (cho-k1); in assay [2] (insect cells)) was “Not Active” each time.
For `CC[C@H]1[C@@H]2C[C@H]3[C@@H]4N(C)c5ccccc5[C@]45C[C@@H]([C@@H]2[C@H]5O)N3[C@@H]1O` [AJMALINE], the IC50 result (in assay [1] (sf9); against Substance-K receptor (cho); against Histamine H2 receptor; at Mu-type opioid receptor (cho-k1); in assay [2] (insect cells)) was “Not Active” throughout.
For `NC12CC3CC(CC(C3)C1)C2` [AMANTADINE], the IC50 result (in assay [1] (sf9); at Substance-K receptor (cho); against Histamine H2 receptor; at Mu-type opioid receptor (cho-k1); in assay [2] (insect cells)) was “Not Active” in each case.
As to `NCCCNCCSP(=O)(O)O` [AMIFOSTINE], the IC50 entry (in assay [1] (sf9); against Substance-K receptor (cho); at Histamine H2 receptor; at Mu-type opioid receptor (cho-k1); in assay [2] (insect cells)) was “Not Active” throughout.
For `CN(C)CCC=C1c2ccccc2CCc2ccccc21` [AMITRIPTYLINE], the IC50 was 0.059 µM in assay [1] (read-out: IC50), “Not Active” against Substance-K receptor (cho), “Not Active” at Mu-type opioid receptor (cho-k1) and “Not Active” in assay [2] (insect cells). The Ki in assay [1] (read-out: Ki) was found to be 0.0086 µM.
For `CC(=O)Oc1ccccc1C(=O)O` [ASPIRIN], the IC50 entry (in assay [1] (sf9); against Substance-K receptor (cho); at Histamine H2 receptor; on Mu-type opioid receptor (cho-k1); in assay [2] (insect cells)) was “Not Active” throughout.
As for `CC(C)c1c(C(=O)Nc2ccccc2)c(-c2ccccc2)c(-c2ccc(F)cc2)n1CC[C@@H](O)C[C@@H](O)CC(=O)O` [ATORVASTATIN], the IC50 result (in assay [1] (sf9); against Substance-K receptor (cho); on Histamine H2 receptor; on Mu-type opioid receptor (cho-k1); in assay [2] (insect cells)) was “Not Active” in each case.
For the molecule `CC(=O)OC[C@H]1O[C@@H](n2ncc(=O)[nH]c2=O)[C@H](OC(C)=O)[C@@H]1OC(C)=O` [AZARIBINE], the IC50 result (in assay [1] (sf9); on Substance-K receptor (cho); against Histamine H2 receptor; on Mu-type opioid receptor (cho-k1); in assay [2] (insect cells)) was “Not Active” in each case.
Consider `C[C@H]1[C@H](NC(=O)/C(=N\OC(C)(C)C(=O)O)c2csc(N)n2)C(=O)N1S(=O)(=O)O` [AZTREONAM], for which the IC50 result (in assay [1] (sf9); against Substance-K receptor (cho); against Histamine H2 receptor; at Mu-type opioid receptor (cho-k1); in assay [2] (insect cells)) was “Not Active” in each case.
With `O=C(O)CCNC(=O)c1ccc(/N=N/c2ccc(O)c(C(=O)O)c2)cc1` [BALSALAZIDE], the IC50 result (in assay [1] (sf9); on Substance-K receptor (cho); at Histamine H2 receptor; at Mu-type opioid receptor (cho-k1); in assay [2] (insect cells)) was “Not Active” each time.
On to `COc1cc(OC)c(C(=O)CCCN2CCCC2)c(OC)c1` [BUFLOMEDIL], for which the IC50 entry (in assay [1] (sf9); against Substance-K receptor (cho); against Histamine H2 receptor; on Mu-type opioid receptor (cho-k1); in assay [2] (insect cells)) was “Not Active” in each case.
`Cn1c(=O)c2c(ncn2C)n(C)c1=O` [CAFFEINE]: the IC50 result (in assay [1] (sf9); against Substance-K receptor (cho); against Histamine H2 receptor; on Mu-type opioid receptor (cho-k1); in assay [2] (insect cells)) was “Not Active” each time.
For the molecule `ClC(Cl)(Cl)Cl` [CARBON TETRACHLORIDE], the IC50 entry (in assay [1] (sf9); on Substance-K receptor (cho); on Histamine H2 receptor; at Mu-type opioid receptor (cho-k1); in assay [2] (insect cells)) was “Not Active” in each case.
As for `CO/N=C(\C(=O)N[C@@H]1C(=O)N2C(C(=O)O)=C(COC(C)=O)CS[C@H]12)c1csc(N)n1` [CEFOTAXIME], the half-inhibitory concentration (IC50) result (in assay [1] (sf9); at Substance-K receptor (cho); against Histamine H2 receptor; at Mu-type opioid receptor (cho-k1); in assay [2] (insect cells)) was “Not Active” each time.
Take `CNC1=Nc2ccc(Cl)cc2C(c2ccccc2)=[N+]([O-])C1` [CHLORDIAZEPOXIDE]: the IC50 entry (in assay [1] (sf9); on Substance-K receptor (cho); on Histamine H2 receptor; at Mu-type opioid receptor (cho-k1); in assay [2] (insect cells)) was “Not Active” each time.
As for `Cc1cc(O)cc(C)c1Cl` [CHLOROXYLENOL], the IC50 entry (in assay [1] (sf9); against Substance-K receptor (cho); against Histamine H2 receptor; on Mu-type opioid receptor (cho-k1); in assay [2] (insect cells)) was “Not Active” in each case.
Turning to `C[C@]12CC[C@H]3[C@@H](CCC4=CC(=O)CC[C@@H]43)[C@@H]1CC[C@@H]2O` [NANDROLONE], the IC50 result (in assay [1] (sf9); on Substance-K receptor (cho); at Histamine H2 receptor; in assay [2] (insect cells)) was “Not Active” in each case.
As to `C[C@@H]1O[C@@H](O[C@H]2C[C@@H](O)[C@]3(CO)[C@H]4[C@H](O)C[C@]5(C)[C@@H](C6=CC(=O)OC6)CC[C@]5(O)[C@@H]4CC[C@]3(O)C2)[C@H](O)[C@H](O)[C@H]1O` [OUABAIN], the IC50 entry (in assay [1] (sf9); against Substance-K receptor (cho); on Histamine H2 receptor; in assay [2] (insect cells)) was “Not Active” in each case.
As for COBALTOUS CHLORIDE, the IC50 entry (in assay [1] (sf9); on Substance-K receptor (cho); on Histamine H2 receptor; in assay [2] (insect cells)) was “Not Active” each time. Further, the Ki entry (in assay [1] (sf9); on Substance-K receptor (cho); on Histamine H2 receptor; in assay [2] (insect cells)) was “Not Active” each time.
For the molecule COLISTIN, the IC50 entry (in assay [1] (sf9); against Substance-K receptor (cho); against Histamine H2 receptor; in assay [2] (insect cells)) was “Not Active” each time. Moreover, the Ki entry (in assay [1] (sf9); at Substance-K receptor (cho); at Histamine H2 receptor; in assay [2] (insect cells)) was “Not Active” each time.
